What all share (assay type): cell-based
Assay [1] concerns Staphylococcus aureus (Staph) planktonic bacteria. As to the kind of experiment: MBEC assay, planktonic Staph isolates (Example 5). Particulars: number of resistant isolates; 12 isolates from device associated infections; exposed 24 hours.
Assay [2] deals with Pseudomonas aeruginosa (Ps) planktonic bacteria. As to the kind of experiment: MBEC assay, planktonic Ps isolates (Example 5).
The subject of the next assay is planktonic P. aeruginosa. As to the kind of experiment: Pseudomonas aeruginosa biofilm assay kit, planktonic MIC reading of challenge plate (Example 8). Particulars: challenge 24 hours at 35° C.; breakpoint concentrations.
Assay [3] concerns planktonic Staphylococcus aureus. As to the kind of experiment: Staphylococcus test plate, planktonic forms (Example 9). Particulars: breakpoint concentrations, number in the label is the concentration tested.
In assay [4] the test system is Pseudomonas aeruginosa (Ps) biofilm. Description: MBEC assay, Ps biofilms (Example 5). Particulars: number of resistant isolates; 12 isolates from Cystic Fibrosis patients; exposed 24 hours.
The test system of the next assay is P. aeruginosa biofilm. Description: Pseudomonas aeruginosa biofilm assay kit, biofilm MBEC reading of recovery plate (Example 8). Particulars: challenge 24 hours at 35° C.; recovery 20 to 24 hours; breakpoint concentrations.
In a further assay the test system is planktonic Candida cells. Description: Planktonic antifungal sensitivity of Candida spp. Particulars: all species tested. How it is done: (§1) Three clinical isolates of Candida were used in this study, including one albicans and two non-albicans species. C. albicans ATCC 14053 was obtained from the University Of Calgary, Department Of Biological Sciences. C. tropicalis 99916 and C. glabrata 14326 were obtained from the dialysate of patients undergoing continued ambulatory peritoneal dialysis (CAPD). Aspergillus fumigatus was also tested.
(§2) Biofilm susceptibility testing uses the pegged lid of the assembly, now containing biofilms formed after rocking in the tray for 24 hour. Each peg on the lid was gently washed once in 200 μl of phosphate buffered saline solution (PBSS) in a 96-well microtiter plate (Falcon). The pegged lid was then transferred to another 96 well microtiter plate containing 2 fold dilutions antifungal agent in 200 μl of RPMI 1640 (Sigma, St. Louis, Mo.) or RPMI 1640 containing 1% DMSO (see test drug section). After the pegs were exposed to the drugs for 24 hours, the pegged lid was removed and gently rinsed twice in saline. The pegged lid was then placed on a 96 well plate containing RPMI 1640 recovery medium. The pegs were sonicated for 5 minutes (Candida spp.) or 7 minutes (Aspergillus) in an ultrasonicator to dislodge adherent cells into the recovery medium. Aliquots of 20 μl of the recovery medium were spot plated on SDA (Candida spp) or Rose Bengal Agar (A. fumigatus) to obtain the MBEC. The assembly was also used to determine the minimum inhibitory concentration (MIC) and minimum fungicidal concentration (MFC). The turbidity of the wells that contained the antibiotic and planktonic cells which were shed from the biofilm was measured at 650 nm to obtain the MIC. A 20 μl sample from each well was also spot plated onto Sabouraud Dextrose agar (Candida spp) or Rose Bengal Agar (A. fumigatus) to obtain the MFC.
Minimum Inhibitory Concentrations (MIC) and Minimum Fungicidal Concentrations (MFC) were determined according to the guidelines of the National Committee for Clinical laboratory Standards (NCCLS). Briefly, Candida sp. were maintained on polystyrene spheres at −70° C. until plating. These organisms were streaked onto Sabouraud Dextrose agar (Microbiologie) plates 24 hours before test initiation. The 24 hour colonies were picked from the agar plates and placed in Muellar-Hinton Broth (MHB, Microbiologie) such that the turbidity matched a McFarland standard of 0.5. This was then diluted 1:10 in MHB to obtain a suspension of approximately 1×10^5 to 5×10^5 CFU/ml. A 5 μl volume of this suspension was added to wells containing 200 μl of antifungal agent serially diluted in RPMI 1640 media (Sigma) in a 96 well microtiter plate (Nunclon). A. fumigatus was maintained as a spore suspension at 4° C. until testing. The spore suspension (50 μl) was diluted into 250 ml of TSB, and 5 μl of this suspension was added to each test well containing dilution of antifungal agent as above.
The test wells were then incubated at 37° C. for 24 hours with the antifungal drugs. MICs for Candida were obtained after incubation by reading the turbidity at 650 nm on a microtiter plate reader (Softmax, VWR). A 20 μl aliquot of each well was also plated (SDA) and MFCs obtained from them after 24 hours incubation at 37° C. MFCs were determined for Aspergillus by plating 100 μl from each well onto Rose Bengal Agar, followed by spreading with a sterile glass spreader. The plated organisms were maintained at 25° C. for three days before colony enumeration.
Drugs tested. Itraconazole, Fluconazole, and Ketoconazole were obtained from Janssen Pharmaceuticals in Brussels, Belgium. Nystatin 5-Fluorocytosine, Griseofulvin, Amphotericin B and Polymyxin B were obtained from Sigma Chemical Co, St. Louis, Mo. 5-Fluorocytosine, polymyxin B sulphate and nystatin were dissolved in double-distilled water to a concentration of 10.24 mg/ml and diluted in the test wells through a range of 1024 μg/ml to 0.125 μg/ml in RPMI. […]

The test system of the next assay is Candida biofilms. Description: Minimum biofilm eradication concentration assay, Candida spp. biofilms. Particulars: biofilm (sessile) Candida. The method, then: as §1
Biofilm formation and measurement of antimicrobial sensitivity of Candida and Aspergillus biofilms were performed using an assembly of the present invention. The device features a microtiter plate lid with 96 pegs or projections distributed on the lid. Each peg provided the surface for microorganism to adhere, colonize and form a uniform biofilm. The pegs fit precisely into the wells of a standard 96-well microtiter plate. The lid was used in conjunction with a base having special troughs for growing, washing, and incubating fungi. Colonies of Candida sp. were picked from 24 hour cultures on Sabouraud Dextrose agar (SDA) (BBL Microbiological Systems, Cockeysville, Md.) and placed into Mueller-Hinton Broth (MHB) (Difco Laboratories, Detroit Mich.) such that the suspension matched a McFarland standard of 1.0. This suspension was then diluted 1:30 in MHB, and 25 ml were pipetted into the trough chamber of the base. The closed assembly (lid with pegs positioned on the base) was placed on a Hoeffer Red Rocker (VWR, Scientific) set to rock the plates 3.5 cycles per minute in a 37° C. incubator. C. albicans and C. tropicalis were incubated aerobically, while C. glabrata was incubated in 10% CO2. It was determined in preliminary experiments that C. glabrata required 10% CO2 atmosphere for biofilms to form.
as §2
Drugs tested. Itraconazole, Fluconazole, and Ketoconazole were obtained from Janssen Pharmaceuticals in Brussels, Belgium. Nystatin 5-Fluorocytosine, Griseofulvin, Amphotericin B and Polymyxin B were obtained from Sigma Chemical Co, St. Louis, Mo. […]

Assay [5] deals with Staphylococcus aureus (Staph) biofilm. As to the kind of experiment: MBEC assay, Staph biofilms (Example 5). Particulars: number of resistant isolates; 12 isolates from device associated infections; exposed 24 hours.
Assay [6] relates to Staphylococcus aureus biofilm. As to the kind of experiment: Staphylococcus test plate, biofilm forms (Example 9). Particulars: breakpoint concentrations; number in the label is the concentration tested.
[7] abbreviates: number of resistant isolates, 12 isolates from Cystic Fibrosis patients, exposed 24 hours.

Entries after “also recorded” stand apart in the source; their conditions may differ. Where two headings read alike, the source gives them in different places.

`O=C(O)c1cn(C2CC2)c2cc(N3CCNCC3)c(F)cc2c1=O` [CIPRO, ciprofloxacin]: the “Staph resistance to individual antibiotics and antibiotic combinations, Planktonic” value (“Staph resistance … Planktonic” below) in assay [1] stood at 10. The “Ps resistance to individual antibiotics and antibiotic combinations, Planktonic” value (“Ps resistance … Planktonic” for short) in assay [2] is on record as 4. The “Number of P. aeruginosa isolates resistant to individual antibiotics and antibiotic combinations, Planktonic” value in the assay with planktonic P. aeruginosa is given as 4. The “Number of Staphylococcus aureus isolates resistant to individual antibiotics and antibiotic combinations, Planktonic” value in assay [3] amounted to 7.

In the case of `NC[C@H]1O[C@H](O[C@H]2[C@H](O)[C@@H](O[C@H]3O[C@H](CO)[C@@H](O)[C@H](N)[C@H]3O)[C@H](N)C[C@@H]2N)[C@H](N)C[C@@H]1O` [TB, tobramycin], the “Ps resistance … Planktonic” value in assay [2] (setting [7]) is 3. Moreover, in assay [4], the “Ps resistance to individual antibiotics and antibiotic combinations, Biofilm” value (“Ps resistance … Biofilm” for short) turned out to be 12. For the same compound, in the assay on planktonic P. aeruginosa, the “Number of P. aeruginosa isolates resistant to individual antibiotics and antibiotic combinations, Planktonic” value is given as 3. Besides, the “Number of P. aeruginosa isolates resistant to individual antibiotics and antibiotic combinations, Biofilm” value in the assay on P. aeruginosa biofilm was determined as 12.

`CCC[C@@H]1C[C@@H](C(=O)N[C@@H]([C@H]2O[C@H](SC)[C@H](O)[C@@H](O)[C@H]2O)[C@H](C)Cl)N(C)C1` [CLIN, clindamycin]: in assay [1], the “Staph resistance … Planktonic” value came to 9. The “Number of Staphylococcus aureus isolates resistant to individual antibiotics and antibiotic combinations, Planktonic” value is reported as 8 in assay [3] (listed as CLI1) and 5 in assay [3] (listed as CLI4).

In the case of Polymyxin B, in the assay on planktonic Candida cells, the “effectiveness in killing planktonic Candida cells” value was “ineffective”. Moreover, the “effectiveness against Candida growing as a biofilm” value (from here on “effectiveness … as a biofilm”) in the assay on Candida biofilms is listed as “ineffective”.

Regarding `COC1=CC(=O)C[C@@H](C)[C@]12Oc1c(Cl)c(OC)cc(OC)c1C2=O` [Griseofulvin], in the assay with planktonic Candida cells, the “effectiveness in killing planktonic Candida cells” value was “ineffective”. For the same compound, the “effectiveness … as a biofilm” value with Candida biofilms is reported as “ineffective”.

As to `C[C@H]1[C@H](NC(=O)/C(=N\OC(C)(C)C(=O)O)c2csc(N)n2)C(=O)N1S(=O)(=O)O` [AZTR, aztreonam], the “Ps resistance … Planktonic” value in assay [2] came to 0. In addition, the “Number of P. aeruginosa isolates resistant to individual antibiotics and antibiotic combinations, Planktonic” value in the assay on planktonic P. aeruginosa is given as 0.

Take `CC(=O)N1CCN(c2ccc(OCC3COC(Cn4ccnc4)(c4ccc(Cl)cc4Cl)O3)cc2)CC1` (centres unmarked) [ketoconazole, Ketoconazole]: in the assay on planktonic Candida cells, the “effectiveness in killing planktonic Candida cells” value is “effective”.

In the case of `C[C@@H](O)[C@H]1C(=O)N2C(C(=O)O)=C(SCCN=CN)C[C@H]12` [IMP, imipenem], in assay [2] (setting [7]), the “Ps resistance … Planktonic” value is on record as 12. The “Ps resistance … Biofilm” value in [4] is reported as 12. Further, the “Number of P. aeruginosa isolates resistant to individual antibiotics and antibiotic combinations, Planktonic” value in the assay with planktonic P. aeruginosa stood at 12. Besides, the “Number of P. aeruginosa isolates resistant to individual antibiotics and antibiotic combinations, Biofilm” value in the assay with P. aeruginosa biofilm turned out to be 12.

`CC(C)(O/N=C(\C(=O)N[C@@H]1C(=O)N2C(C(=O)[O-])=C(C[n+]3ccccc3)CS[C@H]12)c1csc(N)n1)C(=O)O` [CFTZ, ceftazidime]: the “Ps resistance … Planktonic” value in assay [2] (setting [7]) was determined as 3. Moreover, the “Ps resistance … Biofilm” value in assay [4] was determined as 12. Besides, the “Number of P. aeruginosa isolates resistant to individual antibiotics and antibiotic combinations, Planktonic” value with planktonic P. aeruginosa is on record as 3. Moreover, the “Number of P. aeruginosa isolates resistant to individual antibiotics and antibiotic combinations, Biofilm” value in the assay on P. aeruginosa biofilm was 12.

For Colistin [CLO], in assay [2] (setting [7]), the “Ps resistance … Planktonic” value worked out at 2. In assay [4], the “Ps resistance … Biofilm” value worked out at 12. Also, the “Number of P. aeruginosa isolates resistant to individual antibiotics and antibiotic combinations, Planktonic” value in the assay with planktonic P. aeruginosa was 2. In addition, in the assay on P. aeruginosa biofilm, the “Number of P. aeruginosa isolates resistant to individual antibiotics and antibiotic combinations, Biofilm” value amounted to 12.

On to `Cc1onc(-c2ccccc2Cl)c1C(=O)N[C@@H]1C(=O)N2[C@@H]1SC(C)(C)[C@@H]2C(=O)O` [CLOX, cloxacillin], for which the “Staph resistance … Planktonic” value in assay [1] is recorded as 3. Moreover, in assay [5], the “Staph resistance to individual antibiotics and antibiotic combinations, Biofilm” value is listed as 12. The “Number of Staphylococcus aureus isolates resistant to individual antibiotics and antibiotic combinations, Planktonic” value in assay [3] came to 2. Also, the “Number of Staphylococcus aureus isolates resistant to individual antibiotics and antibiotic combinations, Biofilm” value in [6] is recorded as 12.

Consider `Nc1nc(=O)[nH]cc1F` [5-fluorocytosine, 5-Fluorocytosine], for which, in the assay on planktonic Candida cells, the “effectiveness in killing planktonic Candida cells” value is recorded as “effective”.

As to `NCC[C@H](O)C(=O)N[C@@H]1C[C@H](N)[C@@H](O[C@H]2O[C@H](CN)[C@@H](O)[C@H](O)[C@H]2O)[C@H](O)[C@H]1O[C@H]1O[C@H](CO)[C@@H](O)[C@H](N)[C@H]1O` [AK, amikacin], in assay [2] (setting [7]), the “Ps resistance … Planktonic” value amounted to 8. Moreover, the “Ps resistance … Biofilm” value in assay [4] turned out to be 11. In the assay with planktonic P. aeruginosa, the “Number of P. aeruginosa isolates resistant to individual antibiotics and antibiotic combinations, Planktonic” value was found to be 8. In addition, the “Number of P. aeruginosa isolates resistant to individual antibiotics and antibiotic combinations, Biofilm” value with P. aeruginosa biofilm is 11.

For `C[C@@H]1[C@H](O)[C@@H](C)/C=C/C=C/CC/C=C/C=C/C=C/C=C/C(O[C@H]2O[C@H](C)[C@@H](O)[C@H](N)[C@@H]2O)CC2O[C@](O)(CC(O)C(O)CCC(O)CC(O)CC(O)CC(=O)O[C@H]1C)CC(O)C2C(=O)O` (some centres unmarked) [nystatin, Nystatin], the “effectiveness in killing planktonic Candida cells” value in the assay on planktonic Candida cells was “effective”. Further, the “effectiveness … as a biofilm” value in the assay on Candida biofilms is “effective; also recorded: most effective agents”.

For the compound `Cc1nnc(SCC2=C(C(=O)O)N3C(=O)[C@@H](NC(=O)Cn4cnnn4)[C@H]3SC2)s1` [CFZ, cefazolin], the “Staph resistance … Planktonic” value in assay [1] amounted to 2. Besides, the “Number of Staphylococcus aureus isolates resistant to individual antibiotics and antibiotic combinations, Planktonic” value came out at 4 in assay [3] (listed as CFZ4) and 6 in [3] (listed as CFZ8).

The values are drawn from patent US20080318268A1, “Devices and Methods for the Selection of Agents with Efficacy Against Biofilm” (priority 2005, published 2008).
